Results on nine compounds are retold here after PubChem BioAssay (NCI).

“And” between values parts separate entries of the source, which are not always exact repeats. Equal values may be shown once.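 Cells were grown in 96-well plates and exposed to each compound for 48 hours at five concentrations; endpoints were interpolated linearly between bracketing concentrations, or set to the highest concentration if not reached. The concentration for 50% growth inhibition is given as GI50. TGI marks complete inhibition of growth.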 Where a SMILES comes first, the peptide text is derived from it. [ ]: non-standard residue; d: D form. The star is where a group is joined. ξ: configuration not given here. X16 = COC1=CC(=O)N(C(=O)C(O*)C(C)C)C1Cc1ccccc1; ξNMe2Val = CC(C)C(C(=O)*)N(C)C; NMeV = CN[CH](C(=O)O)C(C)C Some results are limits rather than exact numbers.

Some test systems named below: COLO 205 colon; HCT-116 colon; HL-60(TB) leukemia; HT29 colon; K-562 leukemia; NCI-H460 lung; SF-268 CNS; SK-MEL-5 melanoma; UACC-62 melanoma; UO-31 renal.
Holding throughout (assay): NCI-60 cell line screen, 48 h

For `Nc1cc2c(cc1[N+](=O)[O-])[nH]c1c(-c3ccccc3)nccc12`, the TGI with COLO 205 colon was 44.3 µM; in the experiment on HCT-116 colon, 36 µM; with HL-60(TB) leukemia, 42.1 µM; in the experiment with HT29 colon, 46.8 µM; in the experiment with K-562 leukemia, > 100 µM; in the experiment with NCI-H460 lung it was 39.2 µM. Also, the TGI in the experiment on SF-268 CNS was > 100 µM; in the experiment with SK-MEL-5 melanoma, 31.7 µM; in the experiment on UACC-62 melanoma it was 27.8 µM; in the experiment on UO-31 renal, 28.9 µM.

Take `COC1=CC(=O)N(C(=O)C(OC(=O)C2CCCN2C(=O)C2CCCN2C(=O)C(C(C)C)N(C)C(=O)C(NC(=O)C(C(C)C)N(C)C)C(C)C)C(C)C)C1Cc1ccccc1` (stereo not given) (ξNMe2Val-V[NMeV]PP-X16; configuration not given here): the GI50 with COLO 205 colon, in the experiment with HL-60(TB) leukemia, in the experiment with NCI-H460 lung, in the experiment with SF-268 CNS, with SK-MEL-5 melanoma and with UACC-62 melanoma was < 0.0004 µM in each case. For the same compound, in the experiment on UO-31 renal, the GI50 is > 4 µM. Also, the TGI was 0.00838 µM and 0.0415 µM with COLO 205 colon; 0.00123 µM and < 0.0004 µM with HL-60(TB) leukemia; 0.0066 µM with HT29 colon; 0.519 µM in the experiment on NCI-H460 lung; 0.31 µM in the experiment on SF-268 CNS; > 4 µM with UACC-62 melanoma. Further, the TGI in the experiment with UO-31 renal is > 4 µM.

Turning to `CC1(C)CCc2c(cc3c(c2O)CCC(C)(C)O3)O1`, the TGI was > 100 µM in the experiment on COLO 205 colon; > 100 µM with HCT-116 colon; 77.9 µM in the experiment with HL-60(TB) leukemia; > 100 µM in the experiment with HT29 colon; > 100 µM in the experiment on K-562 leukemia; > 100 µM in the experiment with NCI-H460 lung. In addition, the TGI in the experiment with SF-268 CNS, in the experiment on SK-MEL-5 melanoma, in the experiment with UACC-62 melanoma and in the experiment on UO-31 renal was > 100 µM in each case.

Turning to `CCOc1ncn(-c2ccc(NC(=S)Nc3cccc(O)c3)cc2)n1`, the TGI in the experiment on COLO 205 colon, with HCT-116 colon, with HL-60(TB) leukemia, with HT29 colon, in the experiment on K-562 leukemia and with NCI-H460 lung was > 100 µM throughout. Moreover, the TGI in the experiment with SF-268 CNS, in the experiment on SK-MEL-5 melanoma, in the experiment on UACC-62 melanoma and in the experiment with UO-31 renal was > 100 µM in each case.

Take `ClCCN(CCCl)Cc1ccc(Nc2ccnc3cc(Cl)ccc23)cc1`: the GI50 with HCT-116 colon is 1.56 µM; in the experiment on HL-60(TB) leukemia it was 0.403 µM; in the experiment on HT29 colon, 1.28 µM; with NCI-H460 lung, 0.402 µM; with SF-268 CNS it was 1.18 µM. Further, the TGI in the experiment with HCT-116 colon was > 100 µM; in the experiment with HL-60(TB) leukemia, 3.07 µM; with HT29 colon, 4.73 µM; in the experiment on NCI-H460 lung, 10.7 µM; in the experiment on SF-268 CNS, 5.68 µM.

On to `COc1ccc2c(O)c3[n+](cc2c1OC)CCc1cc2c(cc1-3)OCO2`, for which the TGI with COLO 205 colon, in the experiment on HCT-116 colon, with HL-60(TB) leukemia, in the experiment on HT29 colon, in the experiment with K-562 leukemia and in the experiment with NCI-H460 lung was > 100 µM in each case. Moreover, the TGI in the experiment with SF-268 CNS, in the experiment on SK-MEL-5 melanoma and with UACC-62 melanoma was > 100 µM in each case.

Consider `C=C/C(C)=C/[C@H](C)C(=O)C[C@H](O)CC1CC(=O)NC(=O)C1`, for which the TGI in the experiment on COLO 205 colon, in the experiment with HCT-116 colon, with HL-60(TB) leukemia, with HT29 colon, in the experiment with K-562 leukemia and in the experiment on NCI-H460 lung was > 100 µM throughout. For the same compound, the TGI in the experiment on SF-268 CNS, with SK-MEL-5 melanoma, in the experiment with UACC-62 melanoma and in the experiment on UO-31 renal was > 100 µM throughout.

For the compound `Cc1ccc(OP2(=O)Oc3ccc4ccccc4c3CN2c2ccc(Cl)cc2)cc1C` (stereo not given), the TGI in the experiment on COLO 205 colon, in the experiment on HCT-116 colon, with HL-60(TB) leukemia, in the experiment on HT29 colon, in the experiment with K-562 leukemia and in the experiment on NCI-H460 lung was > 100 µM throughout. The TGI with SF-268 CNS, with SK-MEL-5 melanoma, in the experiment on UACC-62 melanoma and in the experiment with UO-31 renal was > 100 µM each time.

As to `COC[C@H]1C(=O)NCC(=O)N2NCCC[C@H]2C(=O)N(O)[C@H](C)C(=O)O[C@@H](C(C)C)[C@H](NC(=O)[C@](C)(O)[C@]2(O)CC[C@@H](CC(C)C)[C@H](C)O2)C(=O)N2NCCC[C@@H]2C(=O)N1O`, the GI50 was 0.0139 µM in the experiment on COLO 205 colon; 0.0151 µM with HL-60(TB) leukemia; 0.0144 µM in the experiment with HT29 colon; < 0.01 µM in the experiment on NCI-H460 lung; 0.0154 µM with UACC-62 melanoma; 0.0192 µM in the experiment with UO-31 renal. The TGI in the experiment on COLO 205 colon came to 0.0284 µM; in the experiment on HL-60(TB) leukemia, 0.0399 µM; with HT29 colon, 0.0293 µM; with NCI-H460 lung, 0.0125 µM; with UACC-62 melanoma, 0.0312 µM; in the experiment with UO-31 renal, 0.0458 µM.
